Laboratory results reported in ChEMBL document CHEMBL1201862, “PubChem BioAssay data set” (2004).
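Results reflect a 48-hour exposure of cells in 96-well plates to compound at five concentrations. GI50 is the concentration that inhibits growth by half.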 Active and inactive are the calls of the source. No stated cut-off is given here; in the data, active = GI50 up to about 1.1 µM and inactive = higher.

Legend:
Assay in all cases: NCI-60 cell line screen, 48 h
786-0 = system: 786-0
A498 = system: A498
A549 = system: A549
ACHN = system: ACHN
CAKI-1 = system: CAKI-1
CCRF-CEM = system: CCRF-CEM
COLO 205 = system: COLO 205
DLD-1 = system: DLD-1
DMS-114 = system: DMS-114
DMS-273 = system: DMS-273
EKVX = system: EKVX
HCC 2998 = system: HCC 2998
HCT-116 = system: HCT-116
HCT-15 = system: HCT-15
HL-60 = system: HL-60
HOP-18 = system: HOP-18
HOP-62 = system: HOP-62
HOP-92 = system: HOP-92
HT-29 = system: HT-29
IGROV-1 = system: IGROV-1
K562 = system: K562
KM-20L2 = system: KM-20L2
KM12 = system: KM12
LOX IMVI = system: LOX IMVI
LXFL 529 = system: LXFL 529
M14 = system: M14
M19-MEL = system: M19-MEL
MOLT-4 = system: MOLT-4
Malme-3M = system: Malme-3M
NCI-H226 = system: NCI-H226
NCI-H23 = system: NCI-H23
NCI-H460 = system: NCI-H460
NCI-H522 = system: NCI-H522
OVCAR-3 = system: OVCAR-3
OVCAR-4 = system: OVCAR-4
OVCAR-5 = system: OVCAR-5
OVCAR-8 = system: OVCAR-8
RPMI-8226 = system: RPMI-8226
RXF 631 = system: RXF 631
SF-268 = system: SF-268
SF-295 = system: SF-295
SK-MEL-28 = system: SK-MEL-28
SK-MEL-2 = system: SK-MEL-2
SK-MEL-5 = system: SK-MEL-5
SK-OV-3 = system: SK-OV-3
SN12C = system: SN12C
SNB-19 = system: SNB-19
SNB-75 = system: SNB-75
SNB-78 = system: SNB-78
SW-620 = system: SW-620
TK-10 = system: TK-10
U-251 = system: U-251
UACC-257 = system: UACC-257
UACC-62 = system: UACC-62
UO-31 = system: UO-31
XF498 = system: XF498
RXF 393 = system: RXF 393
SF-539 = system: SF-539
SR = system: SR

Measured: GI50

CCOC(=O)[C@@]1(C)C=C2O[C@@H]3OC4(CCCCC4)O[C@@H]3C2=C2C(O)=CC=C(O)[C@]21C(=O)OC
> 68.1 µM: HCT-15
inactive: 786-0 > 68.1 µM | A498 > 68.1 µM | A549 > 68.1 µM | ACHN > 68.1 µM | CAKI-1 51.4 µM | CCRF-CEM > 68.1 µM | COLO 205 > 68.1 µM | DLD-1 > 68.1 µM | DMS-114 > 68.1 µM | DMS-273 > 68.1 µM | EKVX > 68.1 µM | HCC 2998 > 68.1 µM | HCT-116 > 68.1 µM | HL-60 33 µM | HOP-18 > 68.1 µM | HOP-62 > 68.1 µM | HOP-92 13.4 µM | HT-29 > 68.1 µM | IGROV-1 > 68.1 µM | K562 51.1 µM | KM-20L2 > 68.1 µM | KM12 > 68.1 µM | LOX IMVI > 68.1 µM | LXFL 529 > 68.1 µM | M14 20.7 µM | M19-MEL > 68.1 µM | MOLT-4 33.7 µM | Malme-3M > 68.1 µM | NCI-H226 > 68.1 µM | NCI-H23 > 68.1 µM | NCI-H460 > 68.1 µM | NCI-H522 > 68.1 µM | OVCAR-3 > 68.1 µM | OVCAR-4 > 68.1 µM | OVCAR-5 > 68.1 µM | OVCAR-8 > 68.1 µM | RPMI-8226 38.6 µM | RXF 631 > 68.1 µM | SF-268 > 68.1 µM | SF-295 > 68.1 µM | SK-MEL-28 > 68.1 µM | SK-MEL-2 > 68.1 µM | SK-MEL-5 > 68.1 µM | SK-OV-3 > 68.1 µM | SN12C > 68.1 µM | SNB-19 > 68.1 µM | SNB-75 > 68.1 µM | SNB-78 > 68.1 µM | SW-620 > 68.1 µM | TK-10 > 68.1 µM | U-251 > 68.1 µM | UACC-257 > 68.1 µM | UACC-62 > 68.1 µM | UO-31 > 68.1 µM | XF498 > 68.1 µM

CC1=C(/C=C/C(C)=C/C2CC(N(C)C)=CC(=O)O2)C(C)(C)CCC1 (centres undefined)
inactive: 786-0 15.4 µM | A498 14.9 µM | A549 9.75 µM | ACHN 12.1 µM | CAKI-1 22.2 µM | CCRF-CEM 3.46 µM | COLO 205 14.1 µM | DLD-1 15.3 µM | DMS-114 10.8 µM | DMS-273 13.4 µM | EKVX 14.4 µM | HCC 2998 13.6 µM | HCT-116 12.9 µM | HL-60 1.44 µM | HOP-18 13.6 µM | HOP-62 16.9 µM | HOP-92 16.4 µM | HT-29 13.2 µM | IGROV-1 14.8 µM | K562 3.56 µM | KM12 15.6 µM | LOX IMVI 15.2 µM | LXFL 529 11.7 µM | M14 14.8 µM | M19-MEL 14.3 µM | MOLT-4 3.2 µM | Malme-3M 14.4 µM | NCI-H226 11.9 µM | NCI-H23 13.5 µM | NCI-H460 17.7 µM | NCI-H522 > 10 µM | OVCAR-3 11.5 µM | OVCAR-4 16 µM | OVCAR-5 11.6 µM | OVCAR-8 15.5 µM | RPMI-8226 1.37 µM | RXF 393 14.9 µM | RXF 631 13.1 µM | SF-268 21 µM | SF-295 13 µM | SF-539 16.5 µM | SK-MEL-28 16.2 µM | SK-MEL-2 13.2 µM | SK-MEL-5 5.45 µM | SK-OV-3 16.4 µM | SN12C 15.5 µM | SNB-19 15.2 µM | SNB-75 17.7 µM | SNB-78 19.5 µM | SR 8.09 µM | SW-620 16.2 µM | TK-10 14.1 µM | U-251 14.6 µM | UACC-257 11.9 µM | UACC-62 13.6 µM | UO-31 10.7 µM | XF498 12.4 µM

CCOC(=O)C(C)c1cc(C2(C)OCCO2)c(C)o1 (centres undefined)
> 100 µM: HCT-15
inactive: 786-0 > 100 µM | A549 > 100 µM | ACHN > 100 µM | CCRF-CEM > 100 µM | COLO 205 > 100 µM | DLD-1 > 100 µM | DMS-114 > 100 µM | DMS-273 > 100 µM | EKVX > 100 µM | HCC 2998 > 100 µM | HCT-116 > 100 µM | HL-60 > 100 µM | HOP-18 > 100 µM | HOP-62 > 100 µM | HOP-92 8.63 µM | IGROV-1 > 100 µM | K562 > 100 µM | KM-20L2 > 100 µM | KM12 > 100 µM | LOX IMVI > 100 µM | LXFL 529 > 100 µM | M14 > 100 µM | M19-MEL > 100 µM | MOLT-4 > 100 µM | Malme-3M > 100 µM | NCI-H23 > 100 µM | NCI-H460 > 100 µM | OVCAR-3 > 100 µM | OVCAR-4 > 100 µM | OVCAR-5 > 100 µM | OVCAR-8 > 100 µM | RPMI-8226 > 100 µM | RXF 393 > 100 µM | RXF 631 > 100 µM | SF-268 > 100 µM | SF-295 > 100 µM | SF-539 > 100 µM | SK-MEL-2 > 100 µM | SK-MEL-5 > 100 µM | SK-OV-3 > 100 µM | SN12C > 100 µM | SNB-19 > 100 µM | SNB-75 88.9 µM | SNB-78 > 100 µM | SW-620 > 100 µM | TK-10 > 100 µM | U-251 > 100 µM | UACC-62 > 100 µM | UO-31 > 100 µM | XF498 > 100 µM
